Key:
Format in all cases: in vivo, nu/nu mice
[1] = Body weight in A549 xenograft study (Example 51)
Method: The antitumor activity of compound 31 was measured in human A549 lung cancer xenograft model. […] Then the cultured A549 human lung cancer cells were implanted into the armpit of 50 mice. When tumors had reached approximately 6 mm in diameter, the mice were divided into 6 groups randomly. Each group has 8 mice. One group was treated with vehicle. One group was treated with sutent, the positive control drug. […] Each group was dosed orally once a day for 24 days. Tumor volumes as established by caliper measurements were recorded twice per week, along with body weights. At the end of study, the mice were killed, and tumors were weighed. The tumor growth inhibition of each group was calculated using the formula {[(the average tumor weight of vehicle group)-(the average tumor weight of drug group)]/(the average tumor weight of vehicle group)}×100%.

[2] = Body weight in SSMC7721 xenograft study (Example 53)
Method: (§1) The antitumor activity of compound 31 was measured in human SSMC7721 liver cancer xenograft model. The female nu/nu mice of 18˜20 g were fed by normal diet for 3 days. Then the cultured SSMC7721 human liver cancer cells were implanted into the armpit of 50 mice. […] One group was treated with vehicle. One group was treated with sutent, the positive control drug. […] Each group was dosed orally once a day for 30 days. Tumor volumes as established by caliper measurements were recorded twice per week, along with body weights. At the end of study, the mice were killed, and tumors were weighed. The tumor growth inhibition of each group was calculated using the formula {[(the average tumor weight of vehicle group)−(the average tumor weight of drug group)]/(the average tumor weight of vehicle group)}×100%.

[3] = system: human SSMC7721 liver cancer xenograft; assay: Antitumor activity of compound 31, SSMC7721 xenograft (Example 53)
Method: as §1

[4] = Body weight in HCT-8 xenograft study (Example 52)
Method: The antitumor activity of compound 31 was measured in human HCT-8 colon cancer xenograft model. The female nu/nu mice of 18˜20 g were fed by normal diet for 3 days. Then the cultured HCT-8 human colon cancer cells were implanted into the armpit of 50 mice. When tumors had reached approximately 100 mm^3, the mice were divided into 6 groups randomly. Each group has 8 mice. One group was treated with vehicle. One group was treated with sutent, the positive control drug. […] Each group was dosed orally once a day for 20 days. Tumor volumes as established by caliper measurements were recorded twice per week, along with body weights. At the end of study, the mice were killed, and tumors were weighed. The tumor growth inhibition of each group was calculated using the formula {[(the average tumor weight of vehicle group)−(the average tumor weight of drug group)]/(the average tumor weight of vehicle group)}×100%.

[5] = Body weight in HCT-8 xenograft study (Example 54)
Method: The antitumor activity of compound 33 and compound 34 were measured in human HCT-8 colon cancer xenograft model. The female nu/nu mice of 18˜20 g were fed by normal diet for 3 days. Then the cultured HCT-8 human colon cancer cells were implanted into the armpit of 50 mice. When tumors had reached approximately 100 mm^3, the mice were divided into 6 groups randomly. Each group has 8 mice. One group was treated with vehicle. One group was treated with sutent, the positive control drug. Two groups were treated with compound 33. The other two groups were treated with compound 34. Each group was dosed orally once a day for 20 days. Tumor volumes as established by caliper measurements were recorded twice per week, along with body weights. At the end of study, the mice were killed, and tumors were weighed. The tumor growth inhibition of each group was calculated using the formula {[(the average tumor weight of vehicle group)−(the average tumor weight of drug group)]/(the average tumor weight of vehicle group)}×100%.

[6] = Body weight in SSMC7721 xenograft study (Example 56)
Method: The antitumor activity of compound 33 and compound 37 were measured in human SSMC7721 liver cancer xenograft model. The female nu/nu mice of 18˜20 g were fed by normal diet for 3 days. Then the cultured SSMC7721 human liver cancer cells were implanted into the armpit of 50 mice. […] Each group has 8 mice. One group was treated with vehicle. One group was treated with sutent, the positive control drug. Two groups were treated with compound 33. The other two groups were treated with compound 37. Each group was dosed orally once a day for 30 days. Tumor volumes as established by caliper measurements were recorded twice per week, along with body weights. At the end of study, the mice were killed, and tumors were weighed. The tumor growth inhibition of each group was calculated using the formula {[(the average tumor weight of vehicle group)−(the average tumor weight of drug group)]/(the average tumor weight of vehicle group)}×100%.

[7] = 5 mg/kg orally once a day for 24 days
[8] = 10 mg/kg orally once a day for 24 days
[9] = 20 mg/kg orally once a day for 24 days
[10] = 40 mg/kg orally once a day for 24 days
[11] = 2.5 mg/kg orally once a day for 30 days
[12] = 5 mg/kg orally once a day for 30 days
[13] = 10 mg/kg orally once a day for 30 days
[14] = 20 mg/kg orally once a day for 30 days
[15] = 2.5 mg/kg orally once a day for 20 days
[16] = 5 mg/kg orally once a day for 20 days
[17] = 10 mg/kg orally once a day for 20 days
[18] = 20 mg/kg orally once a day for 20 days
[19] = 30 mg/kg orally once a day for 20 days
[20] = 60 mg/kg orally once a day for 20 days
[21] = 30 mg/kg orally once a day for 30 days
[22] = 60 mg/kg orally once a day for 30 days

COc1ccc2c(Oc3ccc4c(C(=O)Nc5ccccc5N)cccc4c3)ccnc2c1 [Example 31, N-(2-aminophenyl)-6-(7-methoxyquinolin-4-yloxy)-1-naphthamide]
Body weight (g) end [1, 7]: 24.6 ± 1.3 g | Body weight (g) start [1, 7]: 21.1 ± 0.6 g | Body weight (g) end [1, 8]: 25.1 ± 1.3 g | Body weight (g) start [1, 8]: 19.9 ± 1.3 g | Body weight (g) end [1, 9]: 24.2 ± 0.7 g | Body weight (g) start [1, 9]: 20.6 ± 1.1 g | Body weight (g) end [1, 10]: 22.6 ± 2.4 g | Body weight (g) start [1, 10]: 20.0 ± 0.9 g | Body weight (g) end [2, 11]: 23.2 ± 2.1 g | Body weight (g) start [2, 11]: 20.1 ± 0.9 g | Body weight (g) end [2, 12]: 24.8 ± 1.5 g | Body weight (g) start [2, 12]: 20.8 ± 1.2 g | Body weight (g) end [2, 13]: 23.6 ± 1.5 g | Body weight (g) start [2, 13]: 20.4 ± 1.6 g | Body weight (g) end [2, 14]: 21.0 ± 2.2 g | Body weight (g) start [2, 14]: 20.2 ± 1.7 g | TGI (%) Tumor growth inhibition [3, 11]: 51.7% | Tumor weight [3, 11]: 1.63 ± 0.70 g | TGI (%) Tumor growth inhibition [3, 12]: 65.4% | Tumor weight [3, 12]: 1.16 ± 0.55 g | TGI (%) Tumor growth inhibition [3, 13]: 79.2% | Tumor weight [3, 13]: 0.70 ± 0.45 g | TGI (%) Tumor growth inhibition [3, 14]: 84.4% | Tumor weight [3, 14]: 0.53 ± 0.28 g | Body weight (g) end [4, 15]: 24.5 ± 1.1 g | Body weight (g) start [4, 15]: 20.3 ± 0.8 g | Body weight (g) end [4, 16]: 24.8 ± 1.5 g | Body weight (g) start [4, 16]: 21.6 ± 1.4 g | Body weight (g) end [4, 17]: 23.7 ± 0.8 g | Body weight (g) start [4, 17]: 20.7 ± 1.1 g | Body weight (g) end [4, 18]: 22.5 ± 1.6 g | Body weight (g) start [4, 18]: 20.5 ± 1.3 g

COc1ccc2c(Oc3ccc4c(C(=O)NCc5ccc(C(=O)Nc6ccccc6N)cc5)cccc4c3)ccnc2c1 [Example 33, N-(4-((2-aminophenyl)carbamoyl)benzyl)-6-(7-methoxyquinolin-4-yloxy)-1-naphthamide]
Body weight (g) end [5, 19]: 21.1 ± 2.2 g | Body weight (g) start [5, 19]: 19.0 ± 1.3 g | Body weight (g) end [5, 20]: 21.4 ± 1.5 g | Body weight (g) start [5, 20]: 19.4 ± 0.8 g | Body weight (g) end [6, 21]: 24.0 ± 1.7 g | Body weight (g) start [6, 21]: 20.8 ± 0.5 g | Body weight (g) end [6, 22]: 25.4 ± 2.8 g | Body weight (g) start [6, 22]: 21.4 ± 1.3 g

— US8211901B2, “Naphthamide derivatives as multi-target protein kinase inhibitors and histone deacetylase inhibitors” (Shenzhen Chipscreen Biosciences Ltd., priority 2009, dated 2012)
